One assay concerns the target T1, Rat SERT (Rattus norvegicus, UniProt P31652).
T1 construct: A rat brain without cerebellum (Zivic Laboratories, Inc.—Pittsburgh, Pa.) was homogenized; tissue Zivic Laboratories, Inc; host or cells: rat brain without cerebellum, membranes
Put plainly: Rat brain SERT binding ([3H]-citalopram displacement). The following applies: rat brain membranes without cerebellum, 0.6 nM [3H]-citalopram, 60 min at 25° C.; for pKi: read-out: Rat SERT Ki; for Ki: Rat SERT Ki (nM). Here is the method:
The supernatant was removed and re-centrifuged at 15,000 rpm for 30 min. […] Membranes were incubated with 0.6 nM [^3H]-Citalopram plus/minus test compounds for 60 min at 25° C. and harvested by rapid filtration over GF/C glass fiber filters (pretreated with 0.3% polyethylenimine) followed by four washes with ice-cold buffer.

The next assay has as its target T2, human SERT (Homo sapiens, UniProt P31645).
T2 construct: expressed in transfected cells; host or cells: HEK293 membranes
Nature of the assay: Human SERT binding (3H-citalopram displacement). The following applies: HEK293 membranes expressing human SERT, rt 1 h. Here is the method: Homogenized HEK293 (Human Embryonic Kidney) membranes expressing the human SERT were incubated with ^3H-citalopram (SERT) at rt for 1 h in 50 mM Tris, 120 mM NaCl, 5 mM KCl (pH 7.4). […] The membranes were washed and the radioactivity was counted as above.

Structures are written as SMILES. pKi: −log10 of the molar value. Read-outs that look alike come from different tables or passages of the source.

From patent publication US20060194837A1, “Tetrahydroisoquinoline compounds” (priority 2004, published 2006) come the findings set out here.

T1 sequence (P31652 whole entry): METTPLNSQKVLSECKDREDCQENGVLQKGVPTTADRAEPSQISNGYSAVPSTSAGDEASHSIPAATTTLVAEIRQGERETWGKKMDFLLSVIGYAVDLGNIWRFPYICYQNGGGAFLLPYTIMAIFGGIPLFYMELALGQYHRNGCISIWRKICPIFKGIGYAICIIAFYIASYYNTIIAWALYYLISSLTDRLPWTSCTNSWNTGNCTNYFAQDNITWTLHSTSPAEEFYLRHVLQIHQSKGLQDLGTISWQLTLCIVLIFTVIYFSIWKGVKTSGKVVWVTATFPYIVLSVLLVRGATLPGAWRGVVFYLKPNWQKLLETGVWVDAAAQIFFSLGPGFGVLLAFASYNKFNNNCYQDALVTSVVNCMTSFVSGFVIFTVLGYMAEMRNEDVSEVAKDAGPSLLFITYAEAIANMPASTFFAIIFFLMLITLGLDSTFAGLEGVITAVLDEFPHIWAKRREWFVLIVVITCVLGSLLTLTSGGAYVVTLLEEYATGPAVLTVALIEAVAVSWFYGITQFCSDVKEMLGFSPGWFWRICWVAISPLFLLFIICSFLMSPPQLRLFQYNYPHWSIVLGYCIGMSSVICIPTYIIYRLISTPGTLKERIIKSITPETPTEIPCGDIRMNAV
T2 sequence (P31645 whole entry): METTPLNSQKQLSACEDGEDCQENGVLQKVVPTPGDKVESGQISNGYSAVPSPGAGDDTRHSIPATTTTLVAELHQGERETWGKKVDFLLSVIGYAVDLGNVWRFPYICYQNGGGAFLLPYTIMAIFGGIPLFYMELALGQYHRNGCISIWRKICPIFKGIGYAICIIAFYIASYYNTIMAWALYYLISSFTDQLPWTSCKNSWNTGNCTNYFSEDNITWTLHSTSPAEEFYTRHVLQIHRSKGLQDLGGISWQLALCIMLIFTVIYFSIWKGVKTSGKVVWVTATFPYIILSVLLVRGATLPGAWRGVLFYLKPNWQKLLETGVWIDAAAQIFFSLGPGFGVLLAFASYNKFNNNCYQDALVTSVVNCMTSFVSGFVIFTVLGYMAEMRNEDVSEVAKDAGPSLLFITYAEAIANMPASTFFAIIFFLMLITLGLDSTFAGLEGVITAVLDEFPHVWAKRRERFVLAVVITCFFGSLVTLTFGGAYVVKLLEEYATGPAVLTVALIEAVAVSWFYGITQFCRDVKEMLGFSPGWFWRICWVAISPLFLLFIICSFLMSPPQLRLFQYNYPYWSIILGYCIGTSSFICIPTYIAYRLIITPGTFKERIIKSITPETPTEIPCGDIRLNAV

For `COc1ccc(C2CN(C)Cc3cc(OCCCN4CCC(F)CC4)ccc32)cc1` (single isomer, unassigned) [Example 1B, 7-[3-(4-Fluoro-piperidin-1-yl)-propoxy]-4-(4-methoxy-phenyl)-2-methyl-1,2,3,4-tetrahydro-isoquinoline], the pKi – broadly, −log10 of the Ki, conventionally taken in molar units – at Rat SERT was 8.70; at human SERT it was 8.52.
On to `CN1Cc2cc(OCCCN3CCC(F)CC3)ccc2C(c2ccc(S(C)(=O)=O)cc2)C1` (stereo not shown) [Example 51, 7-[3-(4-Fluoro-piperidin-1-yl)-propoxy]-4-(4-methanesulfonyl-phenyl)-2-methyl-1,2,3,4-tetrahydro-isoquinoline], for which the pKi at Rat SERT was 7.47; at human SERT, 6.99.
In the same order, the values of `COc1ccc(C2CN(C)Cc3cc(OCCCN4CCCC(F)(F)C4)ccc32)cc1` (racemic) [Example 29, 7-[3-(3,3-Difluoro-piperidin-1-yl)-propoxy]-4-(4-methoxy-phenyl)-2-methyl-1,2,3,4-tetrahydro-isoquinoline] are 7.85 and 8.10.
`CSc1ccc(C2CN(C)Cc3cc(OCCCN4CCC(F)CC4)ccc32)cc1` (single isomer, unassigned) [Example 153, 7-[3-(4-Fluoro-piperidin-1-yl)-propoxy]-2-methyl-4-(4-methylsulfanyl-phenyl)-1,2,3,4-tetrahydro-isoquinoline]: the Ki (commonly a dissociation constant, usually derived from enzyme kinetics or from competition with a known ligand) at Rat SERT was determined as 2 nM. The compound also showed a negative-log Ki (pKi) at human SERT of 8.70.
Take `CSc1ccc(C2CN(C)Cc3cc(OCCCN4CCC(F)CC4)ccc32)cc1` (stereo not shown) [Example 52, 7-[3-(4-Fluoro-piperidin-1-yl)-propoxy]-2-methyl-4-(4-methylsulfanyl-phenyl)-1,2,3,4-tetrahydro-isoquinoline]: the results for the pKi at Rat SERT and on human SERT were 8.52 and 8.70, respectively.
As to `COc1ccc(C2CN(C)Cc3cc(OCCCN4CCC(F)CC4)ccc32)cc1Cl` (stereo not shown) [Example 53, 4-(3-Chloro-4-methoxy-phenyl)-7-[3-(4-fluoro-piperidin-1-yl)-propoxy]-2-methyl-1,2,3,4-tetrahydro-isoquinoline], the values for the negative logarithm of the Ki (pKi) on Rat SERT and at human SERT were 8.30 and 8.40, respectively.
Regarding `COc1ccc(C2CN(C)Cc3cc(OCCCN4CCC(F)CC4)ccc32)cc1` (single isomer, unassigned) [Example 1A, 7-[3-(4-Fluoro-piperidin-1-yl)-propoxy]-4-(4-methoxy-phenyl)-2-methyl-1,2,3,4-tetrahydro-isoquinoline], the pKi is 8.22 on Rat SERT and 8.05 on human SERT.
For `COc1ccc(C2CN(C)Cc3cc(OCCCN4CCC4)ccc32)cc1` (stereo not shown) [Example 34, 7-(3-Azetidin-1-yl-propoxy)-4-(4-methoxy-phenyl)-2-methyl-1,2,3,4-tetrahydro-isoquinoline], the negative logarithm of the Ki (pKi) on Rat SERT was 7.96; at human SERT, 8.40.
For `COc1ccc(C2CN(C)Cc3cc(OCCCN4CCC(F)CC4)ccc32)cc1` (racemic) [Example 1, 7-[3-(4-Fluoro-piperidin-1-yl)-propoxy]-4-(4-methoxy-phenyl)-2-methyl-1,2,3,4-tetrahydro-isoquinoline], the values for the pKi at Rat SERT and on human SERT were 8.70 and 8.52, respectively.
As to `CSc1ccc(C2CN(C)Cc3cc(OCCCN4CCC(F)CC4)ccc32)cc1` (single isomer, unassigned) [Example 154, 7-[3-(4-Fluoro-piperidin-1-yl)-propoxy]-2-methyl-4-(4-methylsulfanyl-phenyl)-1,2,3,4-tetrahydro-isoquinoline], the Ki at Rat SERT turned out to be 5 nM. In addition, at human SERT, the pKi was 8.40.
As to `COc1ccc(C2CN(C)Cc3cc(OCCCN4CCCC(F)(F)C4)ccc32)cc1` (single isomer, unassigned) [Example 29B, 7-[3-(3,3-Difluoro-piperidin-1-yl)-propoxy]-4-(4-methoxy-phenyl)-2-methyl-1,2,3,4-tetrahydro-isoquinoline], the pKi on Rat SERT is 8.10; at human SERT, 8.22.
